Measurements as given in patent publication US6855730B2, “3-methylidenyl-2-indolinone modulators of protein kinase” (Sugen, Inc., priority 1998, dated 2005).

Key:
src protein kinase = biological target: T1, src protein kinase (Gallus gallus, UniProt P00523); experiment: Biochemical SRC assay (phosphorylation of biotinylated peptide); settings: read-out: bio src IC50
T1 construct: host or cells: Schizosaccharomyces pombe SP200

[1] = biological target: Myc-GyrB-FGFR fusion protein (Homo sapiens, UniProt P11362); experiment: Biochemical FGFR assay (ELISA); settings: read-out: bio fgfR1 IC50
Chain of Myc-GyrB-FGFR fusion protein (P11362 478-767 limits assumed): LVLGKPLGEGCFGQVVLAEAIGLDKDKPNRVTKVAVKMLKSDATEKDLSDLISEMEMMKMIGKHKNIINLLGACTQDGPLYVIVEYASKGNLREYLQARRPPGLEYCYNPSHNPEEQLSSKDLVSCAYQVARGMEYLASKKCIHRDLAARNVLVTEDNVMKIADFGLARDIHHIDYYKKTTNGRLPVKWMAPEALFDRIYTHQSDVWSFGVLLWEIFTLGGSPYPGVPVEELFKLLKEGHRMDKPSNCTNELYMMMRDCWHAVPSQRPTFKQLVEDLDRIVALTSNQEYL

flkGST = biological target: T2, flkGST (Homo sapiens, UniProt P35968); experiment: bio flkGST assay; format: biochemical
T2 construct: GST
T2 sequence (P35968 786-1356 limits assumed): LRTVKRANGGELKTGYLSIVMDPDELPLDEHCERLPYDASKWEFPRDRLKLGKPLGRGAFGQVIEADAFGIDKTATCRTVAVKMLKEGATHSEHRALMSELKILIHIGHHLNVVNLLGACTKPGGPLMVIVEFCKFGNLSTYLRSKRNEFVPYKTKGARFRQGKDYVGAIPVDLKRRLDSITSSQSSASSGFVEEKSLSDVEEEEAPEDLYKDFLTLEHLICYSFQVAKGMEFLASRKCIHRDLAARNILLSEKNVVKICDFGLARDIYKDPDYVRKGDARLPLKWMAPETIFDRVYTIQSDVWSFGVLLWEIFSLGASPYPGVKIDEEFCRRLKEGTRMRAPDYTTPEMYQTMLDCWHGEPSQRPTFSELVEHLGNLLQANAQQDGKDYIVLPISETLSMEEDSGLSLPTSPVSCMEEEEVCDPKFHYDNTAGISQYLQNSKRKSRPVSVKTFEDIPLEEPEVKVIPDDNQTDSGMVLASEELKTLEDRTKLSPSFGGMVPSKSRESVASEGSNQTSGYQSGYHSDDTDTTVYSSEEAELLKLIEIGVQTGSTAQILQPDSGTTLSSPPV

[2] = biological target: T3, 3T3 cell line genetically engineered to express human PDGF-R (Homo sapiens, UniProt P09619); experiment: PDGF-induced BrdU incorporation assay; format: cell-based; settings: read-out: PDGF-Induced BrdU Incorp. IC50
T3 construct: expressed in transfected cells; host or cells: 3T3

pyk2 = pyk2 (Homo sapiens, UniProt Q14289); experiment: bio pyk2 assay; format: biochemical
Chain of pyk2 (Q14289 whole entry, species assumed): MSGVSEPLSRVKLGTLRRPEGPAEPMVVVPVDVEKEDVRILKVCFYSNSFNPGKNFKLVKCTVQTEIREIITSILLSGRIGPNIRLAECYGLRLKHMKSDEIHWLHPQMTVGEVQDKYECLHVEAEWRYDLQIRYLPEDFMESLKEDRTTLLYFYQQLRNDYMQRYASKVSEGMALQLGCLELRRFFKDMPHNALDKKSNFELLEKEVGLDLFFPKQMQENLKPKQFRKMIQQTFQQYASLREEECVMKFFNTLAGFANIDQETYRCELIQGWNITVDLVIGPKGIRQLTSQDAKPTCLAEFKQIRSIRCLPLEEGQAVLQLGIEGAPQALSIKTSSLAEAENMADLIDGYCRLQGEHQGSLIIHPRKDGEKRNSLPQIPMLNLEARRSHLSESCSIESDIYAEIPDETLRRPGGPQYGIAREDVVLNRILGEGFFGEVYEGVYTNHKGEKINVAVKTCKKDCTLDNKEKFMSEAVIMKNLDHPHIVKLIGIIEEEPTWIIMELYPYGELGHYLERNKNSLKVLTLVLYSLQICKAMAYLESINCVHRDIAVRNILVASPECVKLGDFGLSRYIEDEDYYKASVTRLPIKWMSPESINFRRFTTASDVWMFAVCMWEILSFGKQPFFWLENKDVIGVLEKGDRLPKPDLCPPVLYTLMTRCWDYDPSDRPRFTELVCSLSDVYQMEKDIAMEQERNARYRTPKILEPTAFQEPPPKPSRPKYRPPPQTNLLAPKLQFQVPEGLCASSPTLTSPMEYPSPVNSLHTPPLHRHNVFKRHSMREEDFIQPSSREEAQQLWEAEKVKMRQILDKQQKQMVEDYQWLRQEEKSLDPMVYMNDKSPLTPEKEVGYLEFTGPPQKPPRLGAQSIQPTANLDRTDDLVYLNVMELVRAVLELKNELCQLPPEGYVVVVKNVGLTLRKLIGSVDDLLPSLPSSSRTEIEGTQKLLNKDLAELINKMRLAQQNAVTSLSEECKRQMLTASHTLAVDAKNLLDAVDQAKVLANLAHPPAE

EGFR = EGFR (Homo sapiens, UniProt P00533); experiment: Biochemical EGFR assay (ELISA, A431 cell lysate); parameters: A431 cell lysate (Screening Lab, SUGEN, Inc.); host or cells: A431; settings: read-out: bio EGFr IC50
Chain of EGFR (P00533 25-1210): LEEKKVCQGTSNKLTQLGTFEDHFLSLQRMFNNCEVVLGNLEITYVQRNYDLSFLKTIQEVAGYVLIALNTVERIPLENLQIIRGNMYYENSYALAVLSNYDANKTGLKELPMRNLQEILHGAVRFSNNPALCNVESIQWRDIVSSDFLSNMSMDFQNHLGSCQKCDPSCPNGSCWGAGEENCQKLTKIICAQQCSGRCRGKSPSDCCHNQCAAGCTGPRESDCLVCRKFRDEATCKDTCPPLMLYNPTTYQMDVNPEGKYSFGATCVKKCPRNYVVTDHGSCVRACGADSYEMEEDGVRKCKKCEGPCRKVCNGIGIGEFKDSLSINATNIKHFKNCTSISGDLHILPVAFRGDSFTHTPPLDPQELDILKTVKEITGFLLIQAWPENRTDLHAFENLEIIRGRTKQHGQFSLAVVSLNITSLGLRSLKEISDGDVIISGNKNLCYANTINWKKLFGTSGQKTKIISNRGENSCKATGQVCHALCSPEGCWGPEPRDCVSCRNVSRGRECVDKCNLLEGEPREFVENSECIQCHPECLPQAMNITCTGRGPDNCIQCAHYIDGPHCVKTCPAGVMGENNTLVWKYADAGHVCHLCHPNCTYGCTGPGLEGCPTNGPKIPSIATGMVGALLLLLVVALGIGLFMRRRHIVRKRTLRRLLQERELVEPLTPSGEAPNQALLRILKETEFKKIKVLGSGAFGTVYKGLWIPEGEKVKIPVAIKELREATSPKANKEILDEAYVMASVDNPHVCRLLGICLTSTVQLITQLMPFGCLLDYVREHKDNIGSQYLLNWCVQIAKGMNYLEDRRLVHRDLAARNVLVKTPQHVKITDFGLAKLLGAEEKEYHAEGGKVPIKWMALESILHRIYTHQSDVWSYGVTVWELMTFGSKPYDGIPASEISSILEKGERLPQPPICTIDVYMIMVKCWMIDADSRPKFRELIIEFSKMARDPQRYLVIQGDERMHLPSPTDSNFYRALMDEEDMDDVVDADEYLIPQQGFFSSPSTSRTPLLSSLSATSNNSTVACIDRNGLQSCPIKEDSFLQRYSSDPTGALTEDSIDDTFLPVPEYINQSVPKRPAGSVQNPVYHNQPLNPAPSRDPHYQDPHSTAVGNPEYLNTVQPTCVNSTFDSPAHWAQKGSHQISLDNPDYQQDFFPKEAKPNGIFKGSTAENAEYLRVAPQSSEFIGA
Method in brief: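 EGFR captured from A431 cell lysate onto anti-EGFR-coated plates, then incubated with test compound for 30 min at room temperature. Tyrosine phosphorylation with ATP/MnCl2 was stopped with EDTA after 5 min and detected by anti-phosphotyrosine ELISA with peroxidase/ABTS read-out.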

| SMILES | IC50 (src protein kinase) [µM] | IC50 [1] [µM] | IC50 (flkGST) [µM] | IC50 [2] [µM] | IC50 (pyk2) [µM] | IC50 (EGFR) [µM] |
| --- | --- | --- | --- | --- | --- | --- |
| O=C1Nc2ccccc2/C1=C/c1[nH]c2c(c1CCC(=O)N1CCOCC1)CCCC2 [Example 200, 3-[3-(3-Morpholin-4-yl-3-oxopropyl)-4,5,6,7-tetrahydro-1H-indol-2-ylmethylene]-1,3-dihydroindol-2-one] |  |  | 1.29 | 8.6 | 5.62 | > 100 |
| NC(=O)CCc1c(/C=C2\C(=O)Nc3ccccc32)[nH]c2c1CCCC2 [Example 199, 3-[2-(2-Oxo-1,2-dihydroindol-3-ylidenemethyl)-4,5,6,7-tetrahydro-1H-indol-3-yl]-propionamide] |  |  | 0.17 | 3.5 | 2.83 | > 100 |
| O=C(O)CCc1ccccc1/C=C1/C(=O)Nc2ccccc21 [Example 214, 3-[2-(2-Oxo-1,2-dihydroindol-3-ylidenemethyl)-phenyl]-propionic acid] | > 100 | 30.2 |  |  |  | > 100 |
| CN(C)CCCc1c(/C=C2\C(=O)Nc3ccccc32)[nH]c2c1CCCC2 [Example 198, 3-[3-(3-Dimethylaminopropyl)-4,5,6,7-tetrahydro-1H-indol-2-ylmethylene]-1,3-dihydroindol-2-one] | 2.34 |  | 5.84 | 4.2 | 1.5 | > 100 |
| Cc1cccc2c1/C(=C/c1[nH]c3c(c1CCC(=O)O)CCCC3)C(=O)N2 [Example 193, 3-[2-(4-Methyl-2-oxo-1,2-dihydroindol-3-ylidenemethyl)-4,5,6,7-tetrahydro-1H-indol-3-yl]-propionic acid] | 48.6 | 0.02 | 3.6 | 13.5 | 17.3 | 90.7 |
| Cc1c[nH]c(/C=C2\C(=O)Nc3cccc(C)c32)c1CCC(=O)O [Example 218, 3-[2-(4-Methyl-2-oxo-1,2-dihydroindol-3-ylidenemethyl)-4-methyl-1H-pyrrol-3-yl]-propionic acid] |  |  | 0.48 | 24.8 | 32.3 |  |
| Cc1c[nH]c(C=C2C(=O)Nc3cc(Cl)ccc32)c1CCC(=O)O [Example 219, 3-[2-(6-Chloro-2-oxo-1,2-dihydroindol-3-ylidenemethyl)-4-methyl-1H-pyrrol-3-yl]-propionic acid] | 0.08 |  |  | 7.9 | 4.15 | 98.1 |
| CC(C)NS(=O)(=O)c1ccc2c(c1)C(=Cc1[nH]c3c(c1CCC(=O)O)CCCC3)C(=O)N2 [Example 208, 3-[2-(5-Isopropylaminosulfonyl-2-oxo-1,2-dihydroindol-3-ylidenemethyl)-4,5,6,7-tetrahydro-1H-indol-3-yl]-propionic acid] | 1.84 |  | 0.38 |  | 0.13 | > 100 |
| O=C(O)CCc1c(/C=C2\C(=O)Nc3cc(-c4ccccc4)ccc32)[nH]c2c1CCCC2 [Example 206, 3-[2-(2-oxo-6-phenyl-1,2-dihydroindol-3-ylidenemethyl)-4,5,6,7-tetrahydro-1H-indol-3-yl]-propionic acid] | 0.74 | 1.18 | 0.06 |  |  |  |
| O=C(O)CCc1c(/C=C2\C(=O)Nc3ccc(Br)cc32)[nH]c2c1CCCC2 [Example 192, 3-[2-(5-Bromo-2-oxo-1,2-dihydroindol-3-ylidenemethyl)-4,5,6,7-tetrahydro-1H-indol-3yl]-propionic acid] | 10.5 | 1.81 | 0.03 | 1.4 | 4.87 |  |
| O=C(O)CCc1c(/C=C2\C(=O)Nc3ccc(Cl)cc32)[nH]c2c1CCCC2 [Example 191, 3-[2-(5-Chloro-2-oxo-1,2-dihydroindol-3-ylidenemethyl)-4,5,6,7-tetrahydro-1H-indol-3-yl]-propionic acid] | 12 | 0.04 | 0.04 | 1.1 | 68.5 | > 100 |
| Cc1c[nH]c(/C=C2\C(=O)Nc3ccc(Br)cc32)c1CCC(=O)O [Example 220, 3-[2-(5-Bromo-2-oxo-1,2-dihydroindol-3-ylidenemethyl)-4-methyl-1H-pyrrol-3-yl]-propionic acid] | 6.48 |  | 0.11 | 8.5 | 1.89 |  |
| CN(C)C(=O)CCc1c(/C=C2\C(=O)Nc3ccccc32)[nH]c2c1CCCC2 [Example 197, N,N-Dimethyl-3-[2-(2-oxo-1,2-dihydroindol-3-ylidenemethyl)-4,5,6,7-tetrahydro-1H-indol-3-yl]-propionamide] |  |  | 0.61 | 4.9 | 12 | > 100 |
| O=C(CCc1c(/C=C2\C(=O)Nc3ccccc32)[nH]c2c1CCCC2)NCCN1CCOCC1 [Example 202, N-(2-Morpholin-4-ylethyl)-3-[2-(2-oxo-1,2-dihydroindol-3-ylidenemethyl)-4,5,6,7-tetrahydro-1H-indol-3-yl]-propionamide] | > 50 |  | 2.54 | 5.2 |  | > 100 |
| COc1ccc(-c2ccc3c(c2)NC(=O)/C3=C\c2[nH]c3c(c2CCC(=O)O)CCCC3)cc1 [Example 205, 3-{2-[6-(4-Methoxyphenyl)-2-oxo-1,2-dihydro-indol-3-ylidenemethyl]-4,5,6,7-tetrahydro-1H-indol-3-yl}-propionic acid] | 1.34 | 2.02 | 0.44 |  |  | 16.2 |
| Cc1ccc2c(c1)/C(=C/c1[nH]c3c(c1CCC(=O)O)CCCC3)C(=O)N2 [Example 194, 3-[2-(5-Methyl-2-oxo-1,2-dihydroindol-3-ylidenemethyl)-4,5,6,7-tetrahydro-1H-indol-3-yl]-propionic acid] | 20.6 | 0.04 | 6.67 | 14.2 | 4.09 |  |
| O=C(O)CCc1c(/C=C2\C(=O)Nc3ccccc32)[nH]c2c1CCCC2 [Example 190, 3-[2-(2-Oxo-1,2-dihydro-indol-3-ylidenemethyl)-4,5,6,7-tetrahydro-1H-indol-3-yl]-propionic acid] | 0.11 | 5.85 | 0.087 | 2.9 | < 0.78 |  |
| CNC(=O)CCc1c(/C=C2\C(=O)Nc3ccccc32)[nH]c2c1CCCC2 [Example 201, N-Methyl-3-[2-(2-oxo-1,2-dihydroindol-3-ylidenemethyl)-4,5,6,7-tetrahydro-1H-indol-3-yl]-propionamide] |  |  | 0.57 | 3.9 | 6.61 | > 100 |

Other lines, results leading:

| IC50 (src protein kinase) [µM] | IC50 [1] [µM] | IC50 (flkGST) [µM] | IC50 [2] [µM] | IC50 (pyk2) [µM] | IC50 (EGFR) [µM] | SMILES |
| --- | --- | --- | --- | --- | --- | --- |
| 1.16 | 4.24 | 0.67 |  |  |  | CCOc1cccc(-c2ccc3c(c2)NC(=O)/C3=C\c2[nH]cc(C)c2CCC(=O)O)c1 [Example 224, 3-{2-[6-(3-Ethoxyphenyl)-2-oxo-1,2-dihydro-indol-3-ylidenemethyl]-4-methyl-1H-pyrrol-3-yl}-propionic acid] |
| 5.77 |  | 0.18 | > 50 |  | > 100 | COc1ccc2c(c1)/C(=C/c1[nH]cc(C)c1CCC(=O)O)C(=O)N2 [Example 222, 3-[2-(5-Methoxy-2-oxo-1,2-dihydroindol-3-ylidenemethyl)-4-methyl-1H-pyrrol-3-yl]-propionic acid] |
| 1.06 | 1.22 | 0.57 |  |  | 13.3 | COc1cccc(-c2ccc3c(c2)NC(=O)/C3=C\c2[nH]cc(C)c2CCC(=O)O)c1 [Example 223, 3-{2-[6-(3-Methoxyphenyl)-2-oxo-1,2-dihydro-indol-3-ylidenemethyl]-4-methyl-1H-pyrrol-3-yl}-propionic acid] |
| 0.26 | 0.02 | 4.35 | 3.7 | 10.7 | 36.5 | O=C(O)CCc1c(/C=C2\C(=O)Nc3cc(Cl)ccc32)[nH]c2c1CCCC2 [Example 195, 3-[2-(6-Chloro-2-oxo-1,2-dihydroindol-3-ylidenemethyl)-4,5,6,7-tetrahydro-1H-indol-3-yl]-propionic acid] |
| 4.75 |  |  |  | 23.9 | > 100 | Cc1c[nH]c(/C=C2\C(=O)Nc3ccc(Cl)cc32)c1CCC(=O)O [Example 216, 3-[2-(5-Chloro-2-oxo-1,2-dihydroindol-3-ylidenemethyl)-4-methyl-1H-pyrrol-3-yl]-propionic acid] |
| 4.44 | 0.59 | 0.07 |  |  | 7.09 | COc1cccc(-c2ccc3c(c2)NC(=O)/C3=C\c2[nH]c3c(c2CCC(=O)O)CCCC3)c1 [Example 204, 3-{2-[6-(3-Methoxyphenyl)-2-oxo-1,2-dihydro-indol-3-ylidenemethyl]-4,5,6,7-tetrahydro-1H-indol-3-yl}-propionic acid] |
| 11.3 | 0.05 | 0.41 | 3 | 2.37 |  | COc1ccc2c(c1)NC(=O)/C2=C\c1[nH]c2c(c1CCC(=O)O)CCCC2 [Example 196, 3-[2-(6-Methoxy-2-oxo-1,2-dihydroindol-3-ylidenemethyl)-4,5,6,7-tetrahydro-1H-indol-3-yl]-propionic acid] |
| 3.68 |  |  | 8.7 | 2.89 | > 100 | COc1ccc2c(c1)NC(=O)/C2=C\c1[nH]cc(C)c1CCC(=O)O [Example 217, 3-[2-(6-Methoxy-2-oxo-1,2-dihydroindol-3-ylidenemethyl)-4-methyl-1H-pyrrol-3-yl]-propionic acid] |
